Source: the NIST ThermoML archive (doi:10.1016/j.jct.2015.10.004)
Where “and” joins values, the source holds several entries; their conditions need not be identical. Equal entries are not always repeated. Numbers after ± are expanded uncertainties.

Assay: mn = molality of the nth substance listed, in mol/kg
Details: 101 kPa, Liquid; for mass density: Pycnometric method; for electrical conductivity: Alternating current cell with electrodes

O=S(=O)([O-])C(F)(F)C(F)(F)C(F)(F)C(F)(F)F.[K+] [potassium perfluorobutanesulfonate] + O
Details	electrical conductivity, 293.15 K [S/m]	electrical conductivity, 298.15 K [S/m]	electrical conductivity, 303.15 K [S/m]	electrical conductivity, 308.15 K [S/m]	electrical conductivity, 313.15 K [S/m]	mass density, 288.15 K [kg/m3]	mass density, 293.15 K [kg/m3]	mass density, 298.15 K [kg/m3]	mass density, 303.15 K
m1 = 0.0003	0.00278 ± 0.0004	0.00312 ± 0.00045	0.00344 ± 0.0005	0.00378 ± 0.00055	0.00413 ± 0.0006	–	–	–	–
m1 = 0.00054	0.00499 ± 0.00046	0.00562 ± 0.00052	0.00619 ± 0.00058	0.00681 ± 0.00063	0.00742 ± 0.00069	–	–	–	–
m1 = 0.00087	0.00784 ± 0.00058	0.00882 ± 0.00066	0.00972 ± 0.00072	0.0107 ± 0.0008	0.0117 ± 0.00087	–	–	–	–
m1 = 0.00125	0.0111 ± 0.00075	0.0125 ± 0.00085	0.0138 ± 0.00093	0.0152 ± 0.001	0.0166 ± 0.0011	–	–	–	–
m1 = 0.00164	0.0145 ± 0.00093	0.0163 ± 0.001	0.018 ± 0.0012	0.0197 ± 0.0013	–	–	–	–	–
m1 = 0.00207	0.0181 ± 0.0011	0.0203 ± 0.0013	0.0226 ± 0.0014	0.0248 ± 0.0016	0.0271 ± 0.0017	–	–	–	–
m1 = 0.00259	0.0227 ± 0.0014	0.0253 ± 0.0016	0.0279 ± 0.0017	0.0307 ± 0.0019	0.0335 ± 0.0021	–	–	–	–
m1 = 0.00315	0.0273 ± 0.0017	0.0304 ± 0.0019	0.0336 ± 0.0021	0.0369 ± 0.0023	0.0403 ± 0.0025	–	–	–	–
m1 = 0.00374	0.0322 ± 0.002	0.0357 ± 0.0022	0.0395 ± 0.0024	0.0434 ± 0.0026	0.0474 ± 0.0029	–	–	–	–
m1 = 0.00437	0.0372 ± 0.0023	0.0415 ± 0.0025	0.0457 ± 0.0028	0.0504 ± 0.0031	0.0549 ± 0.0033	–	–	–	–
m1 = 0.00501	0.0423 ± 0.0026	0.0471 ± 0.0028	0.0521 ± 0.0032	0.0572 ± 0.0035	0.0625 ± 0.0038	–	–	–	–
m1 = 0.00571	0.0478 ± 0.0029	0.0532 ± 0.0032	0.0588 ± 0.0035	0.0646 ± 0.0039	0.0705 ± 0.0043	–	–	–	–
m1 = 0.00646	0.0537 ± 0.0032	0.0596 ± 0.0036	0.0658 ± 0.004	0.0725 ± 0.0044	0.0792 ± 0.0048	–	–	–	–
m1 = 0.00723	0.0596 ± 0.0036	0.0662 ± 0.004	0.0732 ± 0.0044	0.0805 ± 0.0048	0.0878 ± 0.0053	–	–	–	–
m1 = 0.00809	0.0661 ± 0.004	0.0734 ± 0.0044	0.081 ± 0.0049	–	0.0976 ± 0.0059	–	–	–	–
m1 = 0.00904	0.0731 ± 0.0044	0.0814 ± 0.0049	–	–	–	–	–	–	–
m1 = 0.04	–	–	–	–	–	1006.5 ± 0.5	1005.6 ± 0.5	1004.3 ± 0.5	1002.7 ± 0.5 kg/m3 and 1002.8 ± 0.5 kg/m3

C[C@H](N)C(=O)N[C@@H](CCC(N)=O)C(=O)O [L-alanyl-L-glutamine] + O
electrical conductivity [S/m]
Details	293.15 K	298.15 K	303.15 K	308.15 K	313.15 K
m1 = 0.05	0.0034 ± 0.0004	0.00364 ± 0.00043	0.00391 ± 0.00049	0.00427 ± 0.00054	0.00463 ± 0.0006
m1 = 0.1	0.00555 ± 0.00046	0.00599 ± 0.00066	0.00648 ± 0.0006	0.00707 ± 0.00069	0.00792 ± 0.00078
m1 = 0.15	0.00766 ± 0.00052	0.0084 ± 0.0007	0.009 ± 0.00071	0.00985 ± 0.00079	0.0112 ± 0.00088
m1 = 0.2	0.0107 ± 0.00072	0.0115 ± 0.00079	0.0124 ± 0.00086	0.0138 ± 0.00093	0.0153 ± 0.001

O=S(=O)([O-])C(F)(F)C(F)(F)C(F)(F)C(F)(F)C(F)(F)C(F)(F)C(F)(F)C(F)(F)F.[K+] [potassium perfluorooctanesulfonate] + O
Details	electrical conductivity, 293.15 K [S/m]	electrical conductivity, 298.15 K [S/m]	electrical conductivity, 303.15 K [S/m]	electrical conductivity, 308.15 K [S/m]	electrical conductivity, 313.15 K [S/m]	mass density, 288.15 K [kg/m3]	mass density, 293.15 K [kg/m3]	mass density, 298.15 K	mass density, 303.15 K
m1 = 0.0003	–	0.00301 ± 0.00041	0.00325 ± 0.0004	0.00359 ± 0.00046	0.00392 ± 0.00051	–	–	–	–
m1 = 0.00033	0.00284 ± 0.00033	0.00326 ± 0.00042	0.00353 ± 0.0004	0.0039 ± 0.00046	0.00427 ± 0.0005	–	–	–	–
m1 = 0.00036	0.00306 ± 0.00038	0.00352 ± 0.00041	0.00381 ± 0.00045	0.0042 ± 0.0005	0.0046 ± 0.00055	–	–	–	–
m1 = 0.00039	0.00326 ± 0.00036	0.00376 ± 0.00041	0.00407 ± 0.00045	0.00449 ± 0.00049	0.00492 ± 0.00054	–	–	–	–
m1 = 0.00041	0.00347 ± 0.00038	0.00399 ± 0.00044	0.00432 ± 0.00048	0.00478 ± 0.00053	0.00522 ± 0.00057	–	–	–	–
m1 = 0.00044	0.00366 ± 0.00038	0.00421 ± 0.00044	0.00456 ± 0.00048	0.00504 ± 0.00054	0.0055 ± 0.00058	–	–	–	–
m1 = 0.00046	0.00384 ± 0.00037	0.00444 ± 0.00043	0.00481 ± 0.00047	0.00531 ± 0.00052	0.0058 ± 0.00056	–	–	–	–
m1 = 0.00049	0.00404 ± 0.00041	0.00466 ± 0.00047	0.00506 ± 0.00051	0.0056 ± 0.00058	0.0061 ± 0.00061	–	–	–	–
m1 = 0.0005	–	–	–	–	–	999.3 ± 0.5	998.3 ± 0.5	997.1 ± 0.5 kg/m3 and 997.2 ± 0.5 kg/m3	995.7 ± 0.5 kg/m3 and 995.8 ± 0.5 kg/m3
m1 = 0.00052	0.00427 ± 0.0004	0.00492 ± 0.00046	0.00534 ± 0.0005	0.00592 ± 0.00056	0.00644 ± 0.0006	–	–	–	–
m1 = 0.00054	0.00447 ± 0.00041	0.00516 ± 0.00047	0.00559 ± 0.00051	0.00621 ± 0.00057	0.00673 ± 0.00061	–	–	–	–
m1 = 0.00057	0.00468 ± 0.00044	0.00541 ± 0.00051	0.00586 ± 0.00055	0.0065 ± 0.00061	0.00706 ± 0.00066	–	–	–	–
m1 = 0.0006	0.0049 ± 0.00041	0.00564 ± 0.00048	0.00612 ± 0.00052	0.00679 ± 0.00057	0.00737 ± 0.00062	–	–	–	–
m1 = 0.00062	0.0051 ± 0.00043	0.00589 ± 0.00049	0.00638 ± 0.00053	0.00709 ± 0.00059	0.00769 ± 0.00064	–	–	–	–
m1 = 0.00066	0.00534 ± 0.00045	0.00616 ± 0.00052	0.00667 ± 0.00055	0.00742 ± 0.00063	0.00805 ± 0.00068	–	–	–	–
m1 = 0.00069	0.00559 ± 0.00044	0.00643 ± 0.00051	0.00697 ± 0.00056	0.00775 ± 0.00062	0.00843 ± 0.00067	–	–	–	–
m1 = 0.00071	0.0058 ± 0.00051	0.00669 ± 0.00054	0.00724 ± 0.00059	0.00806 ± 0.00066	0.00875 ± 0.00072	–	–	–	–
m1 = 0.00075	–	0.00698 ± 0.00051	0.00756 ± 0.00061	0.00841 ± 0.00059	0.00914 ± 0.00067	–	–	–	–
m1 = 0.00078	–	0.00721 ± 0.00053	0.00782 ± 0.00061	0.00871 ± 0.00063	–	–	–	–	–

NCC(=O)N[C@@H](CCC(N)=O)C(=O)O [glycyl-l-glutamine] + O
electrical conductivity
Details	293.15 K	298.15 K	303.15 K	308.15 K	313.15 K
m1 = 0.05	0.00342 ± 0.00042 S/m	0.00366 ± 0.00045 S/m	0.00392 ± 0.00051 S/m	0.00428 ± 0.00056 S/m	0.00464 ± 0.0006 S/m
m1 = 0.1	0.00556 ± 0.00048 S/m	0.006 ± 0.00053 S/m	0.00649 ± 0.0006 S/m	0.00708 ± 0.00063 S/m	0.00793 S/m and 0.00773 S/m
m1 = 0.15	0.00768 ± 0.00049 S/m	0.00832 ± 0.00057 S/m	0.00902 ± 0.00065 S/m	0.00999 ± 0.00068 S/m	0.0108 S/m and 0.0112 S/m
m1 = 0.2	0.0107 ± 0.00072 S/m	0.0116 ± 0.00078 S/m	0.0125 ± 0.00084 S/m	0.0139 ± 0.00092 S/m	0.0148 S/m and 0.0158 S/m

CC(C)C[C@H](NC(=O)CN)C(=O)O [glycyl-L-leucine] + O
electrical conductivity
Details	293.15 K	298.15 K	303.15 K	308.15 K	313.15 K
m1 = 0.05	0.00321 ± 0.0004 S/m	0.00345 ± 0.00044 S/m	0.00373 S/m and 0.00372 S/m	0.00406 ± 0.00053 S/m	0.00455 ± 0.00057 S/m
m1 = 0.1	0.00533 ± 0.00046 S/m	0.0058 ± 0.00052 S/m	0.00634 ± 0.00056 S/m	0.00703 ± 0.00063 S/m	0.00781 ± 0.0007 S/m
m1 = 0.15	0.0074 ± 0.00054 S/m	0.00809 ± 0.0006 S/m	0.00889 ± 0.00066 S/m	0.00987 ± 0.00073 S/m	0.011 ± 0.00081 S/m
m1 = 0.2	0.0104 ± 0.0007 S/m	0.0113 ± 0.00075 S/m	0.0124 ± 0.00084 S/m	0.0137 ± 0.00092 S/m	0.0152 ± 0.001 S/m

NCC(=O)NCC(=O)O [glycylglycine] + O
electrical conductivity [S/m]
Details	293.15 K	298.15 K	303.15 K	308.15 K	313.15 K
m1 = 0.05	0.00328 ± 0.00046	0.00355 ± 0.00048	0.00385 ± 0.00052	0.00429 ± 0.00058	0.00474 ± 0.00083
m1 = 0.1	0.00543 ± 0.00048	0.00593 ± 0.00053	0.00652 ± 0.00059	0.00724 ± 0.00065	0.00805 ± 0.00071
m1 = 0.15	0.00745 ± 0.00053	0.00818 ± 0.0006	0.00904 ± 0.00067	0.0101	0.0113 ± 0.00082
m1 = 0.2	0.0106 ± 0.00072	0.0115 ± 0.00079	0.0125 ± 0.00083	0.014 ± 0.00095	0.0155 ± 0.001

CC(C)[C@H](NC(=O)CN)C(=O)O [glycyl-L-valine] + O
electrical conductivity [S/m]
Details	293.15 K	298.15 K	303.15 K	308.15 K	313.15 K
m1 = 0.05	0.00323 ± 0.00039	0.00347 ± 0.00043	0.00374 ± 0.00047	0.00407 ± 0.00052	0.00456 ± 0.00058
m1 = 0.1	0.00535 ± 0.00047	0.00582 ± 0.00052	0.00636 ± 0.00056	0.00705 ± 0.00063	0.00783 ± 0.00069
m1 = 0.15	0.00742 ± 0.00054	0.00811 ± 0.00058	0.00891 ± 0.00067	0.00989 ± 0.00074	0.011 ± 0.00081
m1 = 0.2	0.0104 ± 0.00071	0.0114 ± 0.00077	0.0124 ± 0.00084	0.0137 ± 0.00093	0.0152 ± 0.001
